The record followed here is patent publication US7638119B2, “Method of diminishing the symptoms of neurodegenerative disease” (priority 2004, dated 2009).

Data set [1] concerns antioxidant response element (ARE). The data set can be described thus: hPAP reporter activation after 3NP in ARE-hPAP primary neuronal cultures. The class given is cell-based, mouse. The following applies: ARE-hPAP+ primary cortical neuronal cultures, neurotoxic doses, 48 hours. An excerpt: Nrf2−/− and ARE-hPAP transgenic reporter mice were bred separately. Nrf2−/− mice were created by targeted disruption of the Nrf2 gene (Chan, K., et al., Proc. Natl. Acad. Sci. USA 93:13943-13948, 1996). ARE-hPAP reporter mice were created by insertion of a 51 basepair segment of rat NAD(P)H Quinone Oxidoreductase-1 promoter containing the core ARE into a minimal promoter upstream of the heat stable human Placental Alkaline Phosphatase (hPAP) (Johnson, D. A., et al., J. Neurochem. 81:1233-1241, 2002).
(§1) For primary cortical neuronal cultures, Nrf2+/− mice were bred and cultures were prepared from individual E15/16 embryos as previously described (Lee, J. M., et al., supra, 2003). Treatments were applied between day 3 and 5 in vitro. Immunostaining for β-III-tubulin and GFAP confirmed no difference in the ratio of neurons to astrocytes between genotypes (data not shown). HPAP+ cultures were prepared similarly. HPAP activity and histochemistry in primary cultures was measured as previously described (Johnson, D. A., et al., supra, 2002).
This activation was localized to the surviving astrocytes (FIG. 2B) as visualized by vector red staining and GFAP co-labeling.

Data set [2] concerns Nrf2+/+ and −/− primary cortical neuronal cultures. The data set can be described thus: LDH release cytotoxicity in primary neuronal cultures treated with 3NP. The class given is cell-based, mouse. The following applies: Nrf2−/− versus wild-type cultures, all doses, treated for 48. On the procedure: as §1
(§2) LDH release into medium was measured using the CytoTox96 Non-Radioactive Cytotoxicity Assay kit (Promega) according to the manufacturers instructions. LDH activity was measured on both media and lysed cells. After normalizing to non-treated wells, the percentage of LDH in the media was calculated. Each measurement was made in at least triplicate on separate cultures from three individual pups. Terminal deoxynucleotidyltransferase-mediated dUTP nick end labeling (TUNEL; Roche Applied Science) staining was also performed according to the manufacturers instructions on cultures from at least two different pups per genotype.
(§3) In order to examine the differential sensitivity of Nrf2−/− neurons to complex II inhibition, Nrf2+/+ and −/− primary cortical neuronal cultures (3 DIV) were treated with 3NP for 48 and assessed for LDH release. […]

In data set [3] the test system is Nrf2−/−, +/− or +/+ mice. The experiment in a line: Systemic 3NP administration: phenotypic scoring, death and weight loss. The class given is in vivo, mouse. How it is done:
(§4) Nrf2−/−, +/−, or +/+ mice received i.p. injections of 50 mg/kg 3NP or vehicle every 12 hours for a total of 7 injections. 25 mg/ml 3-NP in PBS was prepared fresh and adjusted to pH 7.4 with 10M NaOH. Individual doses were diluted so that injection volume remained constant at 200 μl. Six to eight hours after the last dose mice were sacrificed as below. One Nrf2 KO mouse died prior to the seventh dose and three others had severe symptoms that were classified as stage III according to Gabrielson, et al. (Gabrielson, K. L., et al., Am. J. Pathol. 159:1507-1520, 2001).
We posited that this increased sensitivity would also extend to an in vivo model. 18 week-old mice were dosed every 12 hours with 50 mg/kg 3NP. After seven doses, a clear differential sensitivity had emerged based on the subjective classification described by Gabrielson, et al. (Gabrielson, K. L., et al., supra, 2001). […] No Nrf2+/+ or Nrf2+/− mice rated above stage 1.
Table 1: Phenotypic scoring of mice after 3NP administration. Nrf2+/+, Nrf2+/− and Nrf2−/− mice were scored Stage 0, I, II or III based on the development of clinical symptoms.

In data set [4] the test system is Nrf2−/−, +/− or +/+ mice. The data set can be described thus: Striatal lesions after 3NP (Fluorojade-B, cresyl violet). The class given is in vivo, mouse. How it is done:
as §4
(§5) Mice were euthanized with CO2 and perfused with 4% paraformaldehyde. Tissues were post-fixed overnight at 4° C. and cryoprotected in 30% sucrose/PBS. Using a cryostat (Leica), adjacent coronal 20 μm and 50 μm sections were taken for staining with Fluorojade-B and cresyl violet respectively through the entire striatum. […] Lesion size was quantified using the Cavieleri Estimator (Stereoinvestigator; Microbrightfield) on sections 200 μm apart. HPAP histochemistry was measured as previously described (Johnson, D. A., et al., supra, 2002).
After mice were sacrificed, brains were stained with cresyl violet or Fluorojade-B (FIG. 3C). Lesions in Nrf2−/− mice were observable using both staining methods; however, they were more apparent in the fluorojade B-stained sections; these sections were used for lesion volume quantification (FIG. 3D).

For data set [5], the system named is Nrf2+/+ and −/− primary cortical neuronal cultures. The experiment in a line: TUNEL staining of primary neuronal cultures treated with 3NP. It counts as cell-based, mouse. As to conditions: 2 mM 3NP, visual inspection. How it is done:
as §1, §2, §3

In data set [6] the test system is Nrf2−/−, +/− or +/+ mice. The experiment in a line: Rotarod performance after 3NP. The following applies: Nrf2−/− mice versus 3NP-injected Nrf2+/+ and heterozygous mice, four hours after last dose, 5 rpm. The class given is in vivo, mouse. On the procedure:
To assess sensorimotor deficits in 3NP-treated animals, mice were trained up to 5 times per day on the rotarod (Columbus Instruments) for three days prior to 3-NP administration (Fernagut, P. O., et al., Neuroscience 114:1005-1017, 2002). All mice were able to achieve 180 sec (5 rpm) on the first trial by day three. Rotarod function was measured prior to the first dose and following the last dose of 3-NP.
Four hours after the last dose, motor skills were assessed by rotarod performance. Up to three trials were given for each mouse and the longest time spent on the rotarod was used for analysis. All PBS-injected mice were able to maintain 5 rpm for 180 sec (the maximum time allowed).
Background: The rotarod test checks motor coordination on a turning rod.

In data set [7] the test system is Nrf2−/−, +/− and +/+ mice. The following applies: for Average lesion size: 0.5M malonate 1 μl intrastriatal, cresyl violet. How it is done:
(§6) Mice were anesthetized with isoflurane. […] One minute after insertion of the Hamilton syringe, the solution was administered over 2 minutes and the needle was withdrawn 2 mm per minute. ARE-hPAP+ mice were injected similarly with 0.25M (1 μl), due to differences in background strain sensitivity.
as §5
Ten days post-injection mice were sacrified and lesion size was measured by cresyl violet staining (FIG. 4A).

For data set [8], the system named is antioxidant response element (ARE). The data set can be described thus: hPAP histochemistry after intrastriatal malonate in ARE-hPAP reporter mice. It counts as in vivo, mouse. As to conditions: 48 hours after intrastriatal malonate. How it is done: as §6, §5
Malonate was injected intrastriatally into ARE-hPAP reporter mice. After 48 hours the mice were euthanized and hPAP histochemistry was performed. […] ARE-activated astrocytes, as visualized by GFAP immunohistochemistry, occur in a similar pattern (FIG. 5C).

The mark [9] stands for this setting: Nrf2−/− mice, 50 mg/kg i.p. every 12 hours, 7 injections.

Read-outs that look alike come from different tables or passages of the source.

Consider `O=C(O)CC[N+](=O)[O-]` [3NP, 3-nitropropionic acid], for which the hPAP expression result in data set [1] is “significantly increased”. For the same compound, in data set [2], the LDH release result is listed as “greater in the Nrf2−/− cultures than in wild-type cultures”. For the same compound, the “Mice scored Stage 0” value in the data set with Nrf2−/−, +/− or +/+ mice [3] (Nrf2+/+ mice, 50 mg/kg i.p. every 12 hours, 7 injections) was found to be 5; with Nrf2−/−, +/− or +/+ mice [3] (Nrf2+/− mice, 50 mg/kg i.p. every 12 hours, 7 injections) it was 4; in the data set on Nrf2−/−, +/− or +/+ mice [3] (setting [9]), 1. The “Mice scored Stage I” value in the data set on Nrf2−/−, +/− or +/+ mice [3] (setting [9]) is given as 3. Besides, the “Mice scored Stage II” value in the data set with Nrf2−/−, +/− or +/+ mice [3] (setting [9]) stood at 1. Moreover, the “Weight loss, percent of starting weight” value in the data set on Nrf2−/−, +/− or +/+ mice [3] (Nrf2−/− mice, after seven doses of 50 mg/kg) was 12±1.9%. Also, the Death entry with Nrf2−/−, +/− or +/+ mice [3] (Nrf2−/− mice, prior to the seventh dose of 50 mg/kg) is recorded as “one mouse died”. For the same compound, the “Mice with measurable lesions” value with Nrf2−/−, +/− or +/+ mice [4] (Nrf2+/+ mice) is reported as “No lesions”; in the data set with Nrf2−/−, +/− or +/+ mice [4] (Nrf2+/− mice), “only one”; in the data set on Nrf2−/−, +/− or +/+ mice [4] (Nrf2−/− mice), “Five of the eight”. The TUNEL-positive neurons result in data set [5] (Nrf2+/+ neurons) is “significantly lower percentage”; in data set [5] (Nrf2−/− neurons), “Nearly all”. In the data set with Nrf2−/−, +/− or +/+ mice [6], the Rotarod function result is reported as “significantly reduced function”.

On to `O=C(O)CC(=O)O` [malonate], for which the Average lesion size in data set [7] (Nrf2+/+ mice, ten days post-injection) is reported as 0.03±0.07 mm^3; in data set [7] (Nrf2+/− mice, ten days post-injection) it was 0.16±0.07 mm^3. Also, the figures for the “Increase of average lesion size” value in data set [7] (Nrf2−/− versus Nrf2+/+ mice) and in data set [7] (Nrf2−/− versus Nrf2+/− mice) were “over 21 fold” and 4 fold, respectively. Also, the Overt behavioral phenotype result in data set [7] (all genotypes, ten days post-injection) was “None of the mice exhibited an overt behavioral phenotype”. Besides, in data set [8], the hPAP activity entry was “present near the edges of the lesion”.
